Legend:
sebaceous glands = test: Activity of PPAR activators on the size of sebaceous glands, daily topical application to rat back skin; assay type: in vivo, female Fuzzy or OFA rats; details: once daily 4 weeks, control (acetone) = 1.00
Protocol: The evaluation of the activity of the compounds according to the invention is performed by daily topical application (once a day, weekends included) to the skin of the back of female Fuzzy or OFA rats, for 4 weeks. 30 animals of 9/10 weeks old were divided into groups of 6 animals.
The evaluation method entails weighing the animals at the start and end of the test and in evaluating the size of the sebaceous glands on epidermal leaflets.
The animals are euthanized and the treated area (back) is then shaved and defatted. The 8 mm biopsy samples are then incubated in 1 M NaBr. After separating out the epidermis, photographs are taken of the sebaceous glands and the images obtained are then analyzed using the Tina software (quantification of the area of the sebaceous glands, arbitrary area unit [mm^2]), version 2.09 g sold by Raytest GmbH.
The statistical analysis is performed according to Student's t test (XL software sold by Microsoft)
The results are expressed as the mean of the inductions (“Mean RI”) with the value of the standard error of the mean (“SEM”).
Student's t test (“stat”): NS not significant • *p<0.05 • **p<0.01 • ***p<0.001

PPAR gamma = biological target: T1, PPAR gamma (Homo sapiens, UniProt P37231); test: PPAR transactivation test, PPAR gamma (HeLN reporter cells); assay type: cell-based; details: luciferase reporter, Gal-hPPAR gamma, n.a. means not active, read-out: PPAR gamma Kd app
T1 sequence (P37231 238-505 limits assumed): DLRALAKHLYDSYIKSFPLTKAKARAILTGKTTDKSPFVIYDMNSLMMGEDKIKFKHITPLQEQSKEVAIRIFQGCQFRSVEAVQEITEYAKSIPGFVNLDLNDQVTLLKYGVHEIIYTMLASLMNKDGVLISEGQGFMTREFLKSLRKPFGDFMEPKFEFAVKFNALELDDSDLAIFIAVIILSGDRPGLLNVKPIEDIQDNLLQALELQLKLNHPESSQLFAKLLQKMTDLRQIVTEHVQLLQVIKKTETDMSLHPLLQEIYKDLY
Protocol: (§1) Activation of the PPAR receptors with an agonist (activator) in HeLN cells leads to the expression of a reporter gene, luciferase, which, in the presence of a substrate, generates light. The modulation of the PPAR receptors is measured by quantifying the luminescence produced after incubating the cells in the presence of a reference agonist. The ligands displace the agonist from its site. The measurement of the activity is performed by quantifying the light produced. This measurement makes it possible to determine the modulatory activity of the compounds according to the invention by determining the constant that represents the affinity of the molecule for the PPAR receptor. This value can fluctuate according to the basal activity and the expression of the receptor: it is referred to as Kd apparent (KdApp in nM).
(§2) Measurements are also taken for the total agonist controls with the same products.
(§3) The HeLN cell lines used are stable transfectants comprising the plasmids ERE-βGlob-Luc-SV-Neo (reporter gene) and PPAR (α, δ, γ) Gal-hPPAR. These cells are inoculated in 96-well plates at a rate of 10,000 cells per well in 100 µl of DMEN medium without phenol red and supplemented with 10% defatted calf serum. The plates are then incubated at 37° C. and 7% CO2 for 16 hours.
(§4) The various dilutions of the test products and of the reference ligand are added in a proportion of 5 µl per well. The plates are then incubated for 18 hours at 37° C., 7% CO2. The culture medium is removed by upturning and 100 μl of a 1:1 PBS/luciferin mixture are added to each well. After 5 minutes, the plates are read using a luminescence reader.

PPARs delta = biological target: T2, PPARs delta (Homo sapiens, UniProt Q03181); test: PPAR transactivation test, PPAR delta (HeLN reporter cells); assay type: cell-based; details: luciferase reporter, Gal-hPPAR delta, n.a. means not active, read-out: PPARs delta Kd app
T2 sequence (Q03181 171-441 limits assumed): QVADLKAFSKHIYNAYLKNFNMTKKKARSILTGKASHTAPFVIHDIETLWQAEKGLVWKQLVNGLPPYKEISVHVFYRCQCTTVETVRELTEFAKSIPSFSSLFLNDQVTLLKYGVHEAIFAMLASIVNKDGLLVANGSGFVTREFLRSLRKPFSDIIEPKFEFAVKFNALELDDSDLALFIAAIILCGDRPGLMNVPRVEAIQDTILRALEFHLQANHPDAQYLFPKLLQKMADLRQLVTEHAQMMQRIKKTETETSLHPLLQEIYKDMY
Protocol: as §1, §2, §3, §4

PPAR alpha = biological target: T3, PPAR alpha (Homo sapiens, UniProt Q07869); test: PPAR transactivation test, PPAR alpha (HeLN reporter cells); assay type: cell-based; details: luciferase reporter, Gal-hPPAR alpha, n.a. means not active, read-out: PPAR alpha Kd app
T3 sequence (Q07869 200-468 limits assumed): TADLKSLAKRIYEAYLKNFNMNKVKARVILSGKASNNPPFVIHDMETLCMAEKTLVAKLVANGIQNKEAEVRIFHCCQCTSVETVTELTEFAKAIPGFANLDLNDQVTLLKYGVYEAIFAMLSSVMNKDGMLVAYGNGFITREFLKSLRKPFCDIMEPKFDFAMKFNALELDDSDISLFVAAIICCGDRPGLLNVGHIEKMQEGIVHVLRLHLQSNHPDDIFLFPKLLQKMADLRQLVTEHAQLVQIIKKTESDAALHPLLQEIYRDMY
Protocol: as §1, §2
as §3, with “The plates are then incubated at 37° C. and 7% CO2 for 16 hours.” left out
The various dilutions of the test products and of the reference ligand are added in a proportion of 5 µl per well. […] After 5 minutes, the plates are read using a luminescence reader.

## CN(CCOc1ccc(CC2SC(=O)NC2=O)cc1)c1ccccn1 (centres unmarked) [Example 1, 5-{4-[2-(methylpyrid-2-ylamino)ethoxy]-benzyl}thiazolidine-2,4-dione]
Sebaceous glands; Study 1, 0.1% topical
  Mean RI (sebaceous gland size): 0.73
Sebaceous glands; Study 1, 0.3% topical
  Mean RI (sebaceous gland size): 0.55
Sebaceous glands; Study 1, 1% topical
  Mean RI (sebaceous gland size): 0.51
Sebaceous glands; Study 2, 0.1% topical
  Mean RI (sebaceous gland size): 0.83

## COCCOCOc1ccc2cc(C(=O)N(C)Cc3cccc(-c4ccc(CC5SC(=O)NC5=O)cc4)c3)ccc2c1 (centres unmarked) [Example 2, N-methyl-N-[4′-(2,4-dioxothiazolidin-5-yl-methyl)biphenyl-3-ylmethyl]-6-(2-methoxyethoxymethoxy)-naphthalene-2-carboxamide]
Sebaceous glands; Study 2, 0.003% topical
  Mean RI (sebaceous gland size): 0.82
Sebaceous glands; Study 2, 0.03% topical
  Mean RI (sebaceous gland size): 0.75
Sebaceous glands; Study 2, 0.3% topical
  Mean RI (sebaceous gland size): 0.65
Sebaceous glands; Study 3, 0.3% topical
  Mean RI (sebaceous gland size): 0.66
Sebaceous glands; Study 4, 0.3% topical
  Mean RI (sebaceous gland size): 0.67
PPAR gamma
  Kd: 0.5 nM

## CCCCCCCNC(=O)N(C)c1cccc(-c2ccc(C[C@H](Nc3ccccc3C(=O)c3ccccc3)C(=O)O)cc2)c1 [Example 3, (S)-3-[3′-(3-heptyl-1-methylureido)biphenyl4-yl]-2-[2-(1-phenylmethanoyl)phenylamino]-propionic acid]
Sebaceous glands; Study 3, 0.01% topical
  Mean RI (sebaceous gland size): 1.02
Sebaceous glands; Study 3, 0.1% topical
  Mean RI (sebaceous gland size): 0.84
Sebaceous glands; Study 3, 1% topical
  Mean RI (sebaceous gland size): 0.74
PPAR gamma
  Kd: 15 nM
PPARs delta
  Kd: 250 nM

## CCCOc1ccc2cc(C(=O)N(C)Cc3cccc(-c4ccc(CC5SC(=O)NC5=O)cc4)c3)ccc2c1 (centres unmarked) [Example 4, N-methyl-N-[4′-(2,4-dioxothiazolidin-5-yl-methyl)biphenyl-3-ylmethyl)-6-propoxynaphthalene-2-carboxamide]
PPAR gamma
  Kd: 1 nM

## CCCCCCCC(=O)N(C)Cc1cccc(-c2ccc(C[C@H](OCC)C(=O)O)cc2)c1 [Example 5, (S)-2-ethoxy-3-{3′-[(methyloctanoylamino)methyl]biphenyl-4-yl}propionic acid]
PPAR gamma
  Kd: 2 nM
PPAR alpha
  Kd: 500 nM
PPARs delta
  Kd: 4000 nM

## COCCOCOc1ccc2cc(C(=O)N(C)Cc3cccc(-c4ccc(Nc5ccccc5C(=O)O)cc4)c3)ccc2c1 [Example 6, 2-{3′-[({1-[6-(2-methoxyethoxymethoxy)-naphthalen-2-yl]methanoyl}methylamino)methyl]biphenyl-4-ylamino}benzoic acid]
PPAR gamma
  Kd: 30 nM

## CN(C)c1ccc(NC(=O)N(C)c2cccc(-c3ccc(C[C@H](Nc4ccccc4C(=O)c4ccccc4)C(=O)O)cc3)c2)cc1 [Example 7, (S)-3-{3′-[3(4-dimethylaminophenyl)-1-methylureido]biphenyl-4-yl}-2-[2-(1-phenylmethanoyl)-phenylamino]propionic acid]
PPAR gamma
  Kd: 8 nM
PPARs delta
  Kd: 4000 nM

## CCCc1nnc([C@H](Cc2ccc(OCCc3nc(-c4ccccc4)oc3C)cc2)Nc2ccccc2C(=O)c2ccccc2)o1 [Negative Control, 1-{2-[(S)-2-{4-[2-(5-methyl-2-phenyloxazol-4-yl)ethoxy]phenyl}-1-(5-propyl[1,3,4]oxadiazol-2-yl)ethylamino]phenyl}-1-phenylmethanone, reference compound]
Sebaceous glands; Study 4, 0.01% topical
  Mean RI (sebaceous gland size): 1.12
Sebaceous glands; Study 4, 0.1% topical
  Mean RI (sebaceous gland size): 1.08
Sebaceous glands; Study 4, 1% topical
  Mean RI (sebaceous gland size): 1.08

## C[C@]12CCC(=O)CC1CCC1C2CC[C@@]2(C)C1CC[C@@H]2O (stereo partly drawn) [Positive Control, 5a-androstan-17β-ol-3-one, reference compound]
Sebaceous glands; Study 1, 0.3% topical
  Mean RI (sebaceous gland size): 1.73
